# Reference: patent publication US8053415B2, “Compounds having RD targeting motifs” (Washington University in St. Louis, priority 2005, dated 2011)
# Where a SMILES comes first, the peptide text is derived from it.
# What was measured:
# [1] = Absorption and emission spectral properties in 20% aqueous DMSO; format: physicochemical
# Procedure: The spectral properties of cypate and the cypate-peptide conjugates were determined in 20% aqueous DMSO, which solubilizes all the compounds. […] Absorbance measurements were performed with a Beckman Coulter DU 640 spectrophotometer. The fluorescence spectra were recorded on Fluorolog-3 fluorometer (HORIBA Jobin Yvon Inc., Edison, N.J.). To prepare the stock solutions, a high precision analytical balance was used to weigh >2 mg of each compound, which was dissolved in DMSO. The DMSO solutions were then diluted with water to obtain a final solution of 20% aqueous DMSO. An aliquot (known volume) of the solution was transferred to a cuvette with 1 μL precision micropipettes and diluted with 20% aqueous DMSO solvent mixture to give a working solution that absorbs at <1.0 absorbance unit. Aliquots of the working solution were diluted with 20% aqueous DMSO and used to determine the molar absorptivity of each compound. For fluorescence measurements, probe solutions with 0.1 absorbance units were used to minimize inner filter effects.
# Previous studies have shown that this solvent mixture boosts fluorescence intensity and is well tolerated by rodents. Additionally, the dyes and their peptide conjugates are soluble in this solvent mixture, providing a common medium for spectral measurements.
# Absorbance spectra were measured on a Beckman Coulter DU 640 UV-Visible spectrophotometer. Fluorescence spectra were recorded on a HORIBA Jobin Yvon Fluorolog-3 fluorometer. Stock solutions (1.0 mM) of the conjugates were prepared by dissolving each sample in 80% aqueous DMSO. UV-Vis and fluorescence measurements were carried out by adding 5.0 μL of the stock solutions via a micropipette into 3 mL of 20% aqueous DMSO in a quartz cuvette.
# [2] = target: integrin αvβ3 protein (purified ABI) (Homo sapiens, UniProt P05106+P06756); test: Receptor binding assay with 125I-echistatin (Example 3); settings: Table 4, 125I-echistatin tracer
# Chain of integrin αvβ3 protein (purified ABI) (P06756 31-889 limits assumed): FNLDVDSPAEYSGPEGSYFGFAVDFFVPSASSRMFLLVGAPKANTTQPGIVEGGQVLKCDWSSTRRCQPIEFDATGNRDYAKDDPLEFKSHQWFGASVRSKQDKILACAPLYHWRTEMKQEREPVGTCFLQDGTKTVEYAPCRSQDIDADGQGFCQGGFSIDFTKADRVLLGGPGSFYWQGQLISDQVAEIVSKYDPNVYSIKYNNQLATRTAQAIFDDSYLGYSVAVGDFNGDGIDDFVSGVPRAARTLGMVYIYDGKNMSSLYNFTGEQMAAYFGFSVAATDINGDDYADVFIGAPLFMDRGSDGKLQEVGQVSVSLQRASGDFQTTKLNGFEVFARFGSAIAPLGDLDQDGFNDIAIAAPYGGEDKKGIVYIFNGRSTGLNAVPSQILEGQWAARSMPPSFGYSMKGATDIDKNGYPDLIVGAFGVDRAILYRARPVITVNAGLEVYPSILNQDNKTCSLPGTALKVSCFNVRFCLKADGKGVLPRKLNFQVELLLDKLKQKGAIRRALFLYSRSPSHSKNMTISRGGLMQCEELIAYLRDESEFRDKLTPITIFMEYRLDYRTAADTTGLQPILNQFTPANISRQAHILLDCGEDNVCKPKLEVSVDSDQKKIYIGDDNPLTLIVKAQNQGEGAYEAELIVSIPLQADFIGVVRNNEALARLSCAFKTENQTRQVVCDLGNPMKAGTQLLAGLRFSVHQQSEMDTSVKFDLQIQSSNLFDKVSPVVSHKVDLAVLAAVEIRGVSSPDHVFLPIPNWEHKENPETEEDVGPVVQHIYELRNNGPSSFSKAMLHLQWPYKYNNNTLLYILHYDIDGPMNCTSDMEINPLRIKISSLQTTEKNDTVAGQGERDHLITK
# Chain of integrin αvβ3 protein (purified ABI) (P06756 891-1048 partner limits assumed): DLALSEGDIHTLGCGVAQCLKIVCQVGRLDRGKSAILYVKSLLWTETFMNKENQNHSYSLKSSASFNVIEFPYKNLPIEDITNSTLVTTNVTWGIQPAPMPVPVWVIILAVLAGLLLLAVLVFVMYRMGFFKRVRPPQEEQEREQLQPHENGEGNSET
# Chain of integrin αvβ3 protein (purified ABI) (P05106 27-788): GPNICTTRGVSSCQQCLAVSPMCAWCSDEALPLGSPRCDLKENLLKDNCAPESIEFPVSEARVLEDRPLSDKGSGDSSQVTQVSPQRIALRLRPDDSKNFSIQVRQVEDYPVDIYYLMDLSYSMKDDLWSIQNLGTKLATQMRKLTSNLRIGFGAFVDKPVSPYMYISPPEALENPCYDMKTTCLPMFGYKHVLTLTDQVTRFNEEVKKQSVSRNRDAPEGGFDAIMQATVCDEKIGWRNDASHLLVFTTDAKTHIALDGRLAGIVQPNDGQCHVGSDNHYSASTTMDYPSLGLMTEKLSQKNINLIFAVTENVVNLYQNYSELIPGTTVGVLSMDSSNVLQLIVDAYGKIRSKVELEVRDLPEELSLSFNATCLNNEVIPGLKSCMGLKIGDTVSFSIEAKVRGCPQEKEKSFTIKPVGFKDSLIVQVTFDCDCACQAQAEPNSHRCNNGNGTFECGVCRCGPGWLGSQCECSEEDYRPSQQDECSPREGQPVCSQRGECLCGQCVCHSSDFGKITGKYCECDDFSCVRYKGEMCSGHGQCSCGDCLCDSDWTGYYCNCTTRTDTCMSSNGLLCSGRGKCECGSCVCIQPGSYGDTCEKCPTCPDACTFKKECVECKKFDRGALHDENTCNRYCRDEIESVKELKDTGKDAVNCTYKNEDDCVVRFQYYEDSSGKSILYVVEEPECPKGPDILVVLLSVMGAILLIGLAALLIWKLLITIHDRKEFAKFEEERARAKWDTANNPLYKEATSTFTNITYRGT
# Procedure: A 96-well filtration plate was blocked with 0.1% polyethylenimine blocking solution by incubation overnight at 4° C. ^125I-Echistatin (50 nmol/L) was added to the binding buffer (50 mM Tris-HCl, pH 7.4, 100 mM NaCl, 2 mM CaCl2, 1 mM MgCl2, 1 mM MnCl2, 0.1% BSA) with integrin αvβ3 protein (50 ng/well in 96-well filtration plate) and ligands. The concentration range of ligand was between 0.01 and 100 μM. The mixture was incubated for 2 h by shaking at room temperature. Each well was washed three times with 0.25 mL of ice-cold binding buffer and dried. The filters were removed using a punch apparatus and counted in a gamma counter.
# [3] = system: A549 cell membranes (ABI); test: ABI binding assay using A549 cell membranes; parameters: species or system human; settings: compared with purified ABI
# Excerpt: [SEQ ID NO:1] as the target receptor, tracer, and reference standard, respectively. Echistatin is a polypeptide that binds purified ABI specifically and irreversibly and the radiolabeled analogue is used widely in ABI binding assays. […] Because of the rearrangement of the RGD peptide sequence, the low binding of cypate-GRD peptide to ABI was expected.
# HEK cells = test: Cell uptake and internalization (Example 3); format: cell-based, human; settings: within an hour of incubation
# Procedure: (§1) The ABI-positive cells were incubated with cypate or cypate-peptide conjugates at 37° C. for different time points. A549 cells were grown as detailed above. The human glioblastoma cell line, U87, and the human embryonic kidney cell line, HEK, were purchased from ATTC. U87 and HEK cells were maintained in minimum essential medium (MEM) with 2 mM L-glutamine and Earle's BSS adjusted to contain 1.5 g/L sodium bicarbonate, 0.1 mM nonessential amino acids, and 1.0 mM sodium pyruvate, with 10% fetal calf serum, 100 units/mL penicillin, and 100 units/mL streptomycin. Cells were grown on Lab-Tek slides. The medium was replaced and cells were incubated for various times up to 4 h at 37° C. in the presence of 1 μM of the dye conjugated peptides. For fluorescence microscopy, cells were visualized with an Olympus BX61W1 microscope using 775/50 excitation, 845/55 emission. For subcellular localization studies, 25 nM mitotracker green or 50 nM lysotracker red from Molecular Probes (Eugene, Oreg.) was added during the last 15 min or 60 min of incubation, respectively. […] Relative fluorescence was determined for five different areas of each experimental condition using the Slidebook software, and the results were averaged. The average relative fluorescence for each condition was normalized to cells treated with Cyp-GRD peptide.
# U87 cells = test: Cell uptake and internalization (Example 3); format: cell-based, human; settings: within an hour of incubation
# Procedure: as §1
# [4] = system: αv, β3, αvβ3 and αIIBβ3 integrins in A549 cells; test: Immunostaining of integrins in treated and untreated cells; format: cell-based, human; settings: relative to PBS-treated cells
# Procedure: To confirm the receptors that mediate internalization of cypate-GRD in A549 cells, the levels of αv, αIIb, β3, αvβ3, and αIIBβ3 in treated and untreated cells were assessed by immunostaining. Cells were grown on Lab-Tek slides and fixed in 3% paraformaldehyde in PBS for 30 min. After washing three times for 5 min each in PBS, the cells were blocked to mask nonspecific binding sites with PBS containing 1% normal goat serum (blocking solution) for 1 h. Primary antibodies of mouse anti-human αv or β3 integrin antibodies (Chemicon International, Temecula, Calif.) or antihuman αIIBβ3 (GeneTex, Inc., South Bend, Ind.) diluted 1:500 (v/v) in blocking solution were added to each well and incubated overnight at 4° C. After washing three times for 10 min each in PBS, cells were incubated for 1 h with diluted biotinylated-anti-mouse IgG antibody in blocking solution. After washing, antigens were detected with avidin-horseradish peroxidase conjugate and diamino benzidine (Vector Laboratories, Burlingame, Calif.). Slides were counterstained with Mayers Hematoxylin, and the cover slips were mounted for microscopic examination.
# VSMC wild-type cells = test: Internalization in wild-type vascular smooth muscle cells; format: cell-based, mice; settings: 1 μM, 1 hr, 37° C.
# Procedure: (§2) Having shown that cypate-GRD preferentially binds to β3 integrin in ABI-positive cells, it was hypothesized that it would not internalize in β3 knockout cells. Vascular smooth muscle cells (VSMCs) from the aortas of β3^−/−apoE^−/− and β3^+/+apoE^−/− mice were provided by Dr. Clay F. Semenkovich (Washington University Medical School in St. Louis, Mo.). VSMCs were maintained at 37° C. in humidified atmosphere containing 5% CO2 in Dulbecco's modified Eagle's medium (DMEM) containing 10% fetal bovine serum, 4 mmol/L L-glutamine, 1 mM sodium pyruvate, 100 U/ml penicillin, 0.25 μg/ml amphotericin, 100 μg/ml streptomycin. The internalization of cypate-GRD and cyclic cypate-RGD were compared in β3 knockout and wild-type VSMC cells, essentially as described above.
# β3 knockout VSMC cells = test: Internalization in integrin β3 knock-out vascular smooth muscle cells; format: cell-based, mice; settings: 1 μM, 1 hr, 37° C.
# Procedure: as §2
# A549 cells = test: CyQuant cytotoxicity and proliferation assay; format: cell-based, human; settings: 48 hours
# Procedure: Cells were seeded at 2.5×10^4 cells/well and grown in 96 well plates in the presence of 0−1.5×10^−5 M cypate conjugated peptides for 24 or 48 hours. Cell proliferation was measured using the CyQuant proliferation assay from Molecular Probes (Eugene, Oreg.) per the manufacturer's protocol. Briefly, after incubation the microplate was inverted to remove the media and frozen at −70° C. overnight. The microplate was thawed at room temperature and 200 μL of the CyQuant GR dye/cell-lysis buffer was added to each well. […]
# Because the Cyquant assay is based on the adherence of a dye to nucleic acids, the assay is a measure of both proliferative and cytotoxic effects.
compound,measurement,setting,value
"CC1(C)C(/C=C/C=C/C=C/C=C2/N(CCC(=O)NCC(=O)N[C@@H](CCCNC(=N)N)C(=O)N[C@@H](CC(=O)O)C(=O)N[C@@H](CO)C(=O)N3CCC[C@H]3C(=O)N[C@@H](CCCCN)C(=O)O)c3ccc4ccccc4c3C2(C)C)=[N+](CCC(=O)O)c2ccc3ccccc3c21 [Cyp-GRD, Cypate-GRDSPK] (HELM PEPTIDE1{[CC1(C)C(/C=C/C=C/C=C/C=C2/N(CCC(=O)[*:2])c3ccc4ccccc4c3C2(C)C)=[N+](CCC(=O)O)c2ccc3ccccc3c21].G.R.D.S.P.K}$$$$V2.0)",^abεmax,[1],"237,680 cm^−1Mol^−1"
same,^abλmax,[1],789 nm
same,^emλmax,[1],813 nm
same,IC50,[2],> 100 µM
same,ABI binding affinity using A549 cell membranes,[3],No improvement in the ABI binding affinity
same,internalization in HEK cells,HEK cells,internalization
same,internalization in U87 cells,U87 cells,internalization
same,"staining of A549 cells with anti-αv, anti-β3, anti-αvβ3 and anti-αIIBβ3 antibodies after preincubation",[4],reduced staining
same,internalization in VSMC wild-type cells,VSMC wild-type cells,internalized
same,internalization in β3 knockout cells,β3 knockout VSMC cells,not observed
same,"cytotoxicity (CyQuant), longer treatment",A549 cells,not
